Reference: patent EP4467141A1, “PYRAZOLO-QUINOLINES AS SELECTIVE INHIBITORS OF GENOTOXIC STRESS-INDUCED IKK/NF- KB PATHWAYS FOR CANCER THERAPY” (Max-Delbrück-Centrum für Molekulare Medizin in der …, priority 2023, dated 2024)

Key:
Experiment in all cases: Kinase panel study
Format in all cases: biochemical
Settings in all cases: read-out: Percentage of inhibition; for inhibition at 1 µM: 1000nM; for inhibition at 10 µM: 10000nM
CHUK (IKK alpha) = target: T1, CHUK (IKK alpha) (Homo sapiens, UniProt O15111)
T1 construct: purchased Thermo Fisher Scientific
T1 sequence (O15111 1-745): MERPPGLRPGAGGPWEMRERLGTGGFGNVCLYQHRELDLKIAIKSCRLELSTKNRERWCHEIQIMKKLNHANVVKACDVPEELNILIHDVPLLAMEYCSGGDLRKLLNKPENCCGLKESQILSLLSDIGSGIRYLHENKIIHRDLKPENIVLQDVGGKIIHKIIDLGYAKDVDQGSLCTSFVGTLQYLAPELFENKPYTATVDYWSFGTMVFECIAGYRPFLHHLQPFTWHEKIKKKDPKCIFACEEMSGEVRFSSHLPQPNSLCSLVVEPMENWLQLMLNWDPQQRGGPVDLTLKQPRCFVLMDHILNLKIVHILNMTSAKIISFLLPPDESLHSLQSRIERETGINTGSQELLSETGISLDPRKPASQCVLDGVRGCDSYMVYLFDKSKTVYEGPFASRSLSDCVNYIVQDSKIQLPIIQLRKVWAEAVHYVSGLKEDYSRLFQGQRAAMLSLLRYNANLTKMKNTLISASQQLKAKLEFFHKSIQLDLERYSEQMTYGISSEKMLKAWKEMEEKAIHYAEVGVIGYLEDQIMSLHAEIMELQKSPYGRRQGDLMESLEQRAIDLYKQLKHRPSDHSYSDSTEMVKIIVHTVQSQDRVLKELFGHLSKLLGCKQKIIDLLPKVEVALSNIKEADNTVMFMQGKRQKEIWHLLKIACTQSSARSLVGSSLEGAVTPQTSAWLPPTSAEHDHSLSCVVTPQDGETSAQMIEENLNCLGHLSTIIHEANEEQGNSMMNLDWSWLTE
Procedure, shortened: (§1)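 Inhibition was measured in an outsourced in vitro kinase panel using the ZLyte or Adapta format under the provider's standard procedures. Values are percent inhibition at 10 µM or 1 µM compound, and IC50s were also obtained.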

CSNK1G1 (CK1 gamma 1) = target: T2, CSNK1G1 (CK1 gamma 1) (Homo sapiens, UniProt Q9HCP0)
T2 construct: purchased Thermo Fisher Scientific
Procedure, shortened: as §1

GRK5 = target: T3, GRK5 (Homo sapiens, UniProt P34947)
T3 construct: purchased Thermo Fisher Scientific
Procedure, shortened: as §1

CSNK1D (CK1 delta) = target: T4, CSNK1D (CK1 delta) (Homo sapiens, UniProt P48730)
T4 construct: purchased Thermo Fisher Scientific
Procedure, shortened: as §1

PHKG2 = target: T5, PHKG2 (Homo sapiens, UniProt P15735)
T5 construct: purchased Thermo Fisher Scientific
T5 sequence (P15735 1-406): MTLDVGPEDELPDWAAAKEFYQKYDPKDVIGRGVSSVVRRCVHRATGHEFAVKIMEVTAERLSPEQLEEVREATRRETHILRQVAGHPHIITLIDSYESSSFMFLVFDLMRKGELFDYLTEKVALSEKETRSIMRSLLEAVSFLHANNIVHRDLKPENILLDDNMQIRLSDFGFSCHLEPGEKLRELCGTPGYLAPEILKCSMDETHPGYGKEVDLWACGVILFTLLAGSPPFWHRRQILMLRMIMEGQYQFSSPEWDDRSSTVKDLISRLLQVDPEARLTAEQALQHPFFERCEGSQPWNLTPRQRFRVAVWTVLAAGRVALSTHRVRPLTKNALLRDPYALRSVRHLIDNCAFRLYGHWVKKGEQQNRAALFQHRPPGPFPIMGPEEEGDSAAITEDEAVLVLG
Procedure, shortened: as §1

T4 sequence (P48730 whole entry): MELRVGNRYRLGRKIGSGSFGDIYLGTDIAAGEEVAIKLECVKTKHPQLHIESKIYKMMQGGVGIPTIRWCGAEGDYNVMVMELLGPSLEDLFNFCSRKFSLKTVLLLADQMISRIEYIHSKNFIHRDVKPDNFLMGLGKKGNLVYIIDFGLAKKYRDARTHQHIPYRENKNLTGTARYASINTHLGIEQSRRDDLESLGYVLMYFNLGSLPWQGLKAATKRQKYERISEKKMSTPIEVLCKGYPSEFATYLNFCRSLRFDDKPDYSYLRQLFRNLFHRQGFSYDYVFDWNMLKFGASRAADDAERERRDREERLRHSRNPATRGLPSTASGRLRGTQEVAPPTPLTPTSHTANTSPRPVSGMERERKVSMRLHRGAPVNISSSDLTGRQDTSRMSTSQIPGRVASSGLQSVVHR
T3 sequence (P34947 whole entry): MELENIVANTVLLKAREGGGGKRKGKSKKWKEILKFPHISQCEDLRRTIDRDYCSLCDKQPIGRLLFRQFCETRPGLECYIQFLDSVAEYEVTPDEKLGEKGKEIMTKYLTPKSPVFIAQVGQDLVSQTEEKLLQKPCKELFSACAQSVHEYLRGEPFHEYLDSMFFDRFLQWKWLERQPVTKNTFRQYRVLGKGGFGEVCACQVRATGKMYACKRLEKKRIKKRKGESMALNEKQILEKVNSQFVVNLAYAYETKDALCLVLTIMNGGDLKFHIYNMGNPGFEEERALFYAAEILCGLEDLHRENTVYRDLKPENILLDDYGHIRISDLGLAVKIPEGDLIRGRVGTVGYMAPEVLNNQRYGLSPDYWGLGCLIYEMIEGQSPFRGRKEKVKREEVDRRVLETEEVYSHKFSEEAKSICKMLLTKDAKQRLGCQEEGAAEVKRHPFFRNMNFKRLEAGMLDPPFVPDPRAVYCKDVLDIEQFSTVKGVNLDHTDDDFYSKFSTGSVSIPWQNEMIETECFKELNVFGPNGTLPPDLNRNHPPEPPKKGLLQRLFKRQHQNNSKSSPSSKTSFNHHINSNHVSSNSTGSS
T2 sequence (Q9HCP0 whole entry): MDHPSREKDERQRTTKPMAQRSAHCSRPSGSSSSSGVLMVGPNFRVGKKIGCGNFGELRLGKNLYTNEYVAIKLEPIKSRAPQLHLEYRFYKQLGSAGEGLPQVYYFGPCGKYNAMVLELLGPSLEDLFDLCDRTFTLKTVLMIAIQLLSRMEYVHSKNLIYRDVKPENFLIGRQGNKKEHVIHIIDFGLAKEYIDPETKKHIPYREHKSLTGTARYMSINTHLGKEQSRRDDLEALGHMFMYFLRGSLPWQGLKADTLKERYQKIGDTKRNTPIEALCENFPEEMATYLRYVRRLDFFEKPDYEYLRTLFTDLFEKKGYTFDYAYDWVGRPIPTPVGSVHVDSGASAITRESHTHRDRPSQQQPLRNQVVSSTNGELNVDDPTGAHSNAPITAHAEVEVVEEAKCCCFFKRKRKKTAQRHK

Compound | inhibition at 1 µM (CHUK (IKK alpha)) [%] | inhibition at 10 µM (CHUK (IKK alpha)) [%] | inhibition at 1 µM (CSNK1G1 (CK1 gamma 1)) [%] | inhibition at 10 µM (CSNK1G1 (CK1 gamma 1)) [%] | inhibition at 1 µM (GRK5) [%] | inhibition at 10 µM (GRK5) [%] | inhibition at 1 µM (CSNK1D (CK1 delta)) [%] | inhibition at 10 µM (CSNK1D (CK1 delta)) [%] | inhibition at 1 µM (PHKG2) [%] | inhibition at 10 µM (PHKG2) [%]
COc1ccc2c(c1OC)c(=O)n1c3ccc(O)cc3c3ccnc2c31 [MW01, 5-Hydroxy-10,11-dimethoxy-9H-benzo[c]indolo[3,2,1-ij][1,5]naphthyridin-9-one] | 19 | 21 | 5 | 12 | -3 | 0 | 13 | 39 | 6 | 8
COc1ccc2cc3c(N)nn(C(=O)c4cccc(N(C)C)c4)c3nc2c1 [MW05, (3-Amino-7-methoxypyrazolo[3,4-b]quinolin-1-yl)-[3-(dimethylamino)phenyl]methanone] | 7 | 18 | 3 | 6 | -2 | 0 | -1 | -1 | 6 | -3
